# From patent US20260240976A1, “T[…] VACCINES BASED ON VALIDATED TARGET EPITOPES” (Deutsches Krebsforschungszentrum Stiftung des öffentlichen …, priority 2023, published 2026)
# Where a SMILES comes first, the peptide text is derived from it.
# What was measured:
# [1] = system: HPV16-positive cells; test: Cytotoxicity assay (VITAL FR / live-cell imaging-based) with peptide-specific CD8+ T cells; design: species or system human; key: +: cytotox: Ability of peptide-specific T cells to kill HPV16-positive cells.; +*: *highlights data from published resources.; *highlights data from published resources; conditions: HLA restriction A02
# Protocol: The flow cytometry based VITAL FR cytotoxicity assay was used as published by Stanke et al. (Stanke et al., 2010) to assess whether peptide-specific T cells are able to specifically kill HPV-transformed target cells. Briefly, two HLA-A2+ cell lines, a HPV16-negative (HPV16−) control cell line (C33A) and a HPV16-positive (HPV16+) target cell line (CaSki) were fluorescently labeled with either FarRed or CFSE and were co-incubated with peptide-specific CD8+ T cells as effector cells. After 48 h co-incubation, the fluorescently labeled cells were analyzed by flow cytometry to determine the surviving cells and calculate the specific cytolytic function of the effector cells by the ratio of target and control cells.
# CaSki and C33A cells were fluorescently labeled with CFSE and FarRed, respectively. Cells of both cell lines were harvested and resuspended in plain RPMI medium at a concentration of 1×10^6 cells/mL. For cell labeling, 5 μM CSFE were added to CaSki cells and 0.25 μM FarRed were added to C33A cells. The cells were incubated at 37° C. and the reaction was stopped after 10 min by addition of 50 mL RPMI with 10% FBS. The cells were centrifuged at 300×g for 5 min, the supernatant was discarded and the cells were resuspended in their cell culture medium. The labeled cells were seeded in T25 cell culture flasks with 1-2×10^6 cells/flask.
# On the next day, the labeled CaSki and C33A as well as the epitope-specific semi-long-term T cell lines (described in 1.6) were harvested. CD8+ T cells were isolated from the epitope-specific semi-long-term T cell lines using the MACS CD8+ T cell isolation kit (Miltenyi Biotec) according to the manufacturer's protocol for LS columns. The CD8+ T cells were resuspended in T cell medium and added to wells of a F-bottom 96-well plate in serial dilutions to achieve triplicates of 6×10^4, 3×10^4, 1.5×10^4, 0.75×10^4 and 0.375×10^4 cells per well. The CaSki and C33A cells were mixed 1:1 in T cell medium and 3×10^3 cells were added to each well containing T cells. Thereby effector:target (E:T) ratios of […] were achieved. Additionally, triplicates of mixed target cells without T cells were seeded, which is referred to as E:T 0. After 48 h incubation at 37° C., 5% C02, the cells were harvested and analyzed at a BD FACS Canto™ II analyzer using the BD FACS Diva Software Version 6. The obtained data were analyzed with the FlowJo software Version 10 by applying the same gating strategy to all samples. Subsequently, the equations (1) and (2) given below were applied in Excel (Microsoft Office 2016) to calculate specific killing.
# Semi long-term T cell lines were set up to obtain high numbers of T cells, which are required for the analysis of epitope specific cytotoxic T cell responses in VITAL FR cytotoxicity assays. Autologous DCs were generated from PBMCs as described in 1.7 and loaded with the desired HPV16 peptide. PBMCs of the same donor were thawed and resuspended in T cell medium supplemented with rhIL-7 (10 ng/mL) and rhIL-15 (20 ng/mL). 1×10^7 PBMCs/well were seeded to a 24-well plate in a total volume of 1 mL/well. Peptide-loaded DCs were added in a ratio of 50:1 (PBMCs:DCs) in 1 mL rhIL-7 (10 ng/mL) and rhIL-15 (20 ng/mL) supplemented T cell medium to achieve a final volume of 2 mL. The cell cultures were fed with rhIL-2 (final concentration: 40 U/mL) every other day. If the medium turned yellow the feeding was combined with a half medium change with 1 mL fresh IL-2 supplemented T cell medium. After eight days, the peptide stimulation with peptide-loaded DCs was repeated and cultivation was continued. On day 15, the T cell lines were harvested and used for CD8+ T cell isolation and cytotoxicity assays.
# In addition to the VITAL FR assay described herein above, a newly established live-cell imaging-based cytotoxicity assay was applied. […]
# [2] = system: peptide-specific T cell cultures; test: T cell phenotyping and intracellular cytokine staining (IFN-gamma, TNF-alpha); type: cell-based, human; design: key: +: cytokine: Immunogenicity of the peptide shown by intracellular cytokine staining (IFN-gamma, TNF-alpha); +*: *highlights data from published resources.; *highlights data from published resources
# Protocol: To characterize and quantify the responsive cells upon peptide stimulation, the peptide-specific T cell cultures with positive ELISpot results were further analyzed with T cell phenotyping and intracellular cytokine staining (ICS) assessed by flow cytometry.
# The cells of the respective continued short-term T cell culture as well as the DMSO-stimulated and an unresponsive T cell line were harvested into 2 mL reaction tubes and centrifuged at 400×g for 10 min. The supernatant was discarded and the pellet of the unresponsive T cell line was resuspended in 100 μL ELISpot medium and used as unstimulated and unstained control. The pellets of the responsive and the DMSO-stimulated T cell lines were resuspended in 200 μL ELISpot medium and split equally into two wells of a V-bottom 96-well plate. One well of the responsive T cell lines was re-stimulated with 10 μg/mL of its specific peptide while the other well was mock stimulated with 0.1% (v/v) DMSO. As positive control, one well of the DMSO-stimulated T cell line was activated by treatment with 20 ng/ml Phorbol 12-myristate 13-acetate and 1 μM lonomycin. Then, 1:10 diluted GolgiStop (containing monensin) and 1:15 diluted GolgiPlug (containing brefeldin A) were added to all wells to inhibit intracellular transport processes. Monensin inhibits the trans-Golgi transport, while brefeldin A inhibits transport between the ER and the Golgi (Chardin and McCormick, 1999; Mollenhauer et al., 1990). The stimulated cells were incubated for 5 h at standard culture conditions.
# After incubation, the cells were resuspended, centrifuged at 400×g for 5 min and the supernatant was discarded. Then, the cells were resuspended in 50 μL cold staining buffer (unstained) or 50 μL cold staining buffer containing the phenotyping antibodies against CD3, CD4, CD8 and the LIVE/DEAD™ Fixable Near-IR Dead Cell Stain (unstimulated and stimulated) and incubated at 4° C. for 30 min. After the surface staining, the cells were washed twice with 200 μL staining buffer and centrifugation at 1400 rpm, followed by fixation with 1% paraformaldehyde (PFA) solution for 15 min at 4° C. All following centrifugation steps were carried out at 1400 rpm for 5 min. After fixation, the cells were again washed twice with 200 μL cold staining buffer and were then resuspended in 100 μL 1× perm/wash buffer diluted in PBS (provided is 10×) for 15 min at 4° C. for cell membrane permeabilization. Subsequently, the plate was centrifuged and the supernatant was discarded. The cells were resuspended in 50 μL perm/wash buffer diluted in PBS (unstained) or 50 μL perm/wash buffer containing the intracellular cytokine antibodies against IFNγ, TNFα and granzyme B (unstimulated and stimulated) for 30 min at 4° C. After intracellular cytokine staining, the cells were washed twice with 200 μL 1× perm/wash buffer. Then 100 μL fix/perm solution (provided in the BD Cytofix/Cytoperm kit) were added per well. After 20 min of incubation at 4° C., the cells of each well were washed twice with 200 μL 1× perm/wash buffer before being resuspended in 100 μL staining buffer and stored at 4° C. overnight.
# OneComp eBeads™ (eBeads) and ArC™ Amine Reactive Compensation beads (ArC beads) were stained as compensation controls. For each antibody, 50 μL of the eBeads suspension were stained with the same dilution as used for staining the cells. The ArC beads were stained with 1 μL LIVE/DEAD™ Fixable Near-IR Dead Cell Stain stock solution in 50 μL staining buffer. The beads were incubated at 4° C. for 30 min and were then washed two times with 1 mL staining buffer and centrifugation at 400×g. Finally, the stained beads were resuspended in 400 μL staining buffer, one drop of ArC™ negative beads was added to the labelled ArC beads, and all beads were stored at 4° C. overnight.
# On the next day, the samples and the single stained compensation controls were acquired at a BD FACS Canto™ II analyzer using the BD FACS Diva Software Version 6. […]
# [3] = system: short-term antigen-specific T cell lines generated from PBMCs; test: Interferon-γ ELISpot assay on short-term antigen-specific T cell lines; type: cell-based, human; conditions: for rates of immunoactivation in PBMC samples, CD8 T cell responses and/or numbers of HPV16 positive cell lines presenting the peptide as HLA-complexes: comparison among the peptides in Table 1
compound,measurement,setting,value
CC[C@H](C)[C@H](NC(=O)[C@@H]1CCCN1C(=O)[C@H](CS)NC(=O)[C@@H](NC(=O)[C@@H](NC(=O)CNC(=O)[C@H](CC(C)C)NC(=O)[C@@H](NC(=O)CNC(=O)[C@H](CCSC)NC(=O)[C@@H](N)CC(C)C)[C@@H](C)O)[C@@H](C)CC)C(C)C)C(=O)O [compound 25] (H-LMGTLGIVCPI-OH),cytotox: Ability of peptide-specific T cells to kill HPV16-positive cells,[1],+
137 (RHYCYSLY; Human papillomavirus 16) [compound 137],"cytokine: Immunogenicity of the peptide shown by intracellular cytokine staining (IFN-gamma, TNF-alpha)",[2]; HLA restriction A03,+
same,ELISpot: Immungenicity of the peptide shown by IFN-gamma ELISPOT analysis,[3]; HLA restriction A03,+
117 (YRHYCYSVY; Human papillomavirus 16) [compound 117],"cytokine: Immunogenicity of the peptide shown by intracellular cytokine staining (IFN-gamma, TNF-alpha)",[2]; HLA restriction B15,+
same,ELISpot: Immungenicity of the peptide shown by IFN-gamma ELISPOT analysis,[3]; HLA restriction B15,+
97 (RPRKLPQL; Human papillomavirus 16) [compound 97],"cytokine: Immunogenicity of the peptide shown by intracellular cytokine staining (IFN-gamma, TNF-alpha)",[2]; HLA restriction B07,+
same,ELISpot: Immungenicity of the peptide shown by IFN-gamma ELISPOT analysis,[3]; HLA restriction B07,+
same,"rates of immunoactivation in PBMC samples, CD8 T cell responses and/or numbers of HPV16 positive cell lines presenting the peptide as HLA-complexes",[3],"highest rates of immunoactivation in PBMC samples, to induce the strongest CD8 T cell responses, and/or shown to be presented as HLA-complexes by the highest numbers of HPV16 positive cell lines"
62 (NPYAVCDKCLK; Human papillomavirus 16) [compound 62],"cytokine: Immunogenicity of the peptide shown by intracellular cytokine staining (IFN-gamma, TNF-alpha)",[2]; HLA restriction A11,+
same,ELISpot: Immungenicity of the peptide shown by IFN-gamma ELISPOT analysis,[3]; HLA restriction A11,+
61 (IVYRDGNPY; Human papillomavirus 16) [compound 61],"cytokine: Immunogenicity of the peptide shown by intracellular cytokine staining (IFN-gamma, TNF-alpha)",[2]; HLA restriction A03,+
same,"cytokine: Immunogenicity of the peptide shown by intracellular cytokine staining (IFN-gamma, TNF-alpha)",[2]; HLA restriction A11,+
same,ELISpot: Immungenicity of the peptide shown by IFN-gamma ELISPOT analysis,[3]; HLA restriction A03,+
same,ELISpot: Immungenicity of the peptide shown by IFN-gamma ELISPOT analysis,[3]; HLA restriction A11,+
4 (YGVCDKCLKFY; Human papillomavirus 16) [compound 4],"cytokine: Immunogenicity of the peptide shown by intracellular cytokine staining (IFN-gamma, TNF-alpha)",[2]; HLA restriction A01,+
same,ELISpot: Immungenicity of the peptide shown by IFN-gamma ELISPOT analysis,[3]; HLA restriction A01,+
65 (VCDKCLKFYSK; Human papillomavirus 16) [compound 65],"cytokine: Immunogenicity of the peptide shown by intracellular cytokine staining (IFN-gamma, TNF-alpha)",[2]; HLA restriction A11,+
same,ELISpot: Immungenicity of the peptide shown by IFN-gamma ELISPOT analysis,[3]; HLA restriction A11,+
116 (LCIVYRDGNPY; Human papillomavirus 16) [compound 116],"cytokine: Immunogenicity of the peptide shown by intracellular cytokine staining (IFN-gamma, TNF-alpha)",[2]; HLA restriction B15,+
same,ELISpot: Immungenicity of the peptide shown by IFN-gamma ELISPOT analysis,[3]; HLA restriction B15,+
87 (PDRAHYNIVTF; Human papillomavirus 16) [compound 87],"cytokine: Immunogenicity of the peptide shown by intracellular cytokine staining (IFN-gamma, TNF-alpha)",[2]; HLA restriction A24,+
same,ELISpot: Immungenicity of the peptide shown by IFN-gamma ELISPOT analysis,[3]; HLA restriction A24,+
107 (KQQLLRREVY; Human papillomavirus 16) [compound 107],"cytokine: Immunogenicity of the peptide shown by intracellular cytokine staining (IFN-gamma, TNF-alpha)",[2]; HLA restriction B15,+
same,ELISpot: Immungenicity of the peptide shown by IFN-gamma ELISPOT analysis,[3]; HLA restriction B15,+
same,"rates of immunoactivation in PBMC samples, CD8 T cell responses and/or numbers of HPV16 positive cell lines presenting the peptide as HLA-complexes",[3],"highest rates of immunoactivation in PBMC samples, to induce the strongest CD8 T cell responses, and/or shown to be presented as HLA-complexes by the highest numbers of HPV16 positive cell lines"
64 (AVCDKCLKFYS; Human papillomavirus 16) [compound 64],"cytokine: Immunogenicity of the peptide shown by intracellular cytokine staining (IFN-gamma, TNF-alpha)",[2]; HLA restriction A11,+
same,ELISpot: Immungenicity of the peptide shown by IFN-gamma ELISPOT analysis,[3]; HLA restriction A11,+
141 (RPRKLPDLCT; Human papillomavirus 16) [compound 141],"cytokine: Immunogenicity of the peptide shown by intracellular cytokine staining (IFN-gamma, TNF-alpha)",[2]; HLA restriction B07,+
same,ELISpot: Immungenicity of the peptide shown by IFN-gamma ELISPOT analysis,[3]; HLA restriction B07,+
60 (AFRDLCIVYR; Human papillomavirus 16) [compound 60],"cytokine: Immunogenicity of the peptide shown by intracellular cytokine staining (IFN-gamma, TNF-alpha)",[2]; HLA restriction A11,+
same,ELISpot: Immungenicity of the peptide shown by IFN-gamma ELISPOT analysis,[3]; HLA restriction A11,+
66 (GIVCPICSQK; Human papillomavirus 16) [compound 66],"cytokine: Immunogenicity of the peptide shown by intracellular cytokine staining (IFN-gamma, TNF-alpha)",[2]; HLA restriction A03,+
same,ELISpot: Immungenicity of the peptide shown by IFN-gamma ELISPOT analysis,[3]; HLA restriction A03,+
43 (LLMGTLGIVC; Human papillomavirus 16) [compound 43],"cytokine: Immunogenicity of the peptide shown by intracellular cytokine staining (IFN-gamma, TNF-alpha)",[2]; HLA restriction A02,+
same,ELISpot: Immungenicity of the peptide shown by IFN-gamma ELISPOT analysis,[3]; HLA restriction A02,+
102 (EPDRAHYNIV; Human papillomavirus 16) [compound 102],"cytokine: Immunogenicity of the peptide shown by intracellular cytokine staining (IFN-gamma, TNF-alpha)",[2]; HLA restriction B07,+
same,ELISpot: Immungenicity of the peptide shown by IFN-gamma ELISPOT analysis,[3]; HLA restriction B07,+
115 (FAFRDLCIVY; Human papillomavirus 16) [compound 115],"cytokine: Immunogenicity of the peptide shown by intracellular cytokine staining (IFN-gamma, TNF-alpha)",[2]; HLA restriction B15,+
same,ELISpot: Immungenicity of the peptide shown by IFN-gamma ELISPOT analysis,[3]; HLA restriction B15,+
